Where a SMILES comes first, the peptide text is derived from it. Bridges are numbered along the chain shown (N, C = ends). [ ]: non-standard residue; d: D form. The star is where a group is joined. hPhe(3-Cl-4-CF3) = N[C@@H](CCc1ccc(C(F)(F)F)c(Cl)c1)C(=O)O; NPrPhe(4-CF3) = CCCN[C@@H](Cc1ccc(C(F)(F)F)cc1)C(=O)O; NMeGly(cPent) = CN[C@H](C(=O)O)C1CCCC1; Ac4c(3,3-Me2) = CC1(C)CC(N)(C(=O)O)C1; NMeD = CN[C@@H](CC(=O)O)C(=O)O; NMeL = CN[C@@H](CC(C)C)C(=O)O; Morpholide = C1CN(*)CCO1; NMeA = CN[C@@H](C)C(=O)O; Piperidide = C1CCN(*)CC1; Ac5c = NC1(C(=O)O)CCCC1; Aze = O=C(O)[C@@H]1CCN1; NEtG = CCNCC(=O)O; Sar = CNCC(=O)O
Key:
[1] = target: HRAS wild-type protein (Homo sapiens, UniProt P01112); assay: Binding to HRAS by surface plasmon resonance (SPR), KD and KD ratio to KRAS
HRAS wild-type protein, sequence (P01112 whole entry): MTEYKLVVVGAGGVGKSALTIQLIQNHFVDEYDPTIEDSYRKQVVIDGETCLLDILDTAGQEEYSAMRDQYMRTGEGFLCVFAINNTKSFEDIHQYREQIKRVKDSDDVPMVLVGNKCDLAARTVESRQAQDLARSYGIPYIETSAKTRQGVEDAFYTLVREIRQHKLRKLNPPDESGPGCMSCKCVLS
How it was run: (§1)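 Single-cycle kinetics on GDP-loaded biotin-Avi RAS captured to ~100–300 RU; 75 s ascending injections, 100 µL/min, 30°C. HBS pH 7.4 + 10 mM MgCl2/10 µM GDP/4% DMSO. 1:1 fit, KD.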

[2] = test system: human lung cancer strain NCI-H441; type: cell-based
How it was run: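 Proliferation was scored by […] measured after the reagent was added to cultures kept at 37°C in 5% carbon dioxide.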

[3] = target: GDP-bound NRAS wild-type protein (Homo sapiens, UniProt P01111); assay: Binding to NRAS by surface plasmon resonance (SPR), KD and KD ratio to KRAS
GDP-bound NRAS wild-type protein, sequence (P01111 whole entry): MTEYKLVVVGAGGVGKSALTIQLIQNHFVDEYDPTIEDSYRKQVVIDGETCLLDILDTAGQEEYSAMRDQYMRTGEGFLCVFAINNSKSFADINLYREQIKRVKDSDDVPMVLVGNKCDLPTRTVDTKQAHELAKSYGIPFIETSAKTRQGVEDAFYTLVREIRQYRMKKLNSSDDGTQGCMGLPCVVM
How it was run: as §1

[4] = ratio of KD for HRAS wild-type protein to KD for KRAS
[5] = ratio of KD for GDP-bound NRAS wild-type protein to KD for KRAS
[6] = ratio of the KD value with respect to HRAS wild-type protein to the KD value with respect to KRAS
[7] = ratio of the KD value with respect to GDP-bound NRAS wild-type protein to the KD value with respect to KRAS

| SMILES | HRAS /KRAS [1, 4] | IC50 [2] | NRAS /KRAS [3, 5] | HRAS /KRAS [1, 6] | NRAS /KRAS [3, 7] | further results |
| --- | --- | --- | --- | --- | --- | --- |
| CCO[C@@H]1C[C@H]2C(=O)NC3(CC(C)(C)C3)C(=O)N(C)[C@@H](C3CCCC3)C(=O)N(C)[C@H](C(=O)N(C)C)CC(=O)N(C)[C@H]3CCCCCCc4ccc(cc4)C[C@@H](C(=O)N(C)CC(=O)N[C@@H](CCc4ccc(Cl)c(Cl)c4)C(=O)N2C1)N1CC/C=C\C[C@@H](C1=O)N(C)C(=O)CN(C)C(=O)[C@H]([C@@H](C)CC)NC3=O [PP3071] | B (a compound having 3 or more and less than 10 is denoted as B) | 6.6 nM | A (a compound having 10 or more and less than 20 is denoted as A) |  |  |  |
| CCO[C@@H]1C[C@H]2C(=O)NC3(CCC3)C(=O)N(C)[C@@H](C3CCCC3)C(=O)N(C)[C@H](C(=O)N(C)CC)CC(=O)N(C)[C@@H](C)C(=O)N[C@@H]([C@@H](C)CC)C(=O)N(C)CC(=O)N(C)[C@H]3C/C=C\CCN(C3=O)[C@@H](Cc3ccc(C(F)(F)F)cc3)C(=O)N(C)CC(=O)N[C@@H](CCc3cc(F)c(C(F)(F)F)c(F)c3)C(=O)N2C1 [PP1302] |  | 9.2 nM |  |  |  | HRAS /KRAS ([1]; ratio of KD with respect to HRAS wild-type protein to KD with respect to KRAS): A (a compound having 10 or more and less than 20 is denoted as A); NRAS /KRAS ([3]; ratio of KD with respect to GDP-bound NRAS wild-type protein to KD with respect to KRAS): A (a compound having 10 or more and less than 20 is denoted as A) |
| CCCN1C(=O)CN(C)C(=O)CN(C)C(=O)[C@H]([C@@H](C)OCC)NC(=O)[C@H](CC(C)C)N(C)C(=O)C[C@@H](C(=O)N2CCOCC2)N(C)C(=O)[C@H](C2CCCC2)N(C)C(=O)C2(CC(C)(C)C2)NC(=O)[C@@H]2CCCN2C(=O)[C@H](CCc2ccc(C(F)(F)F)c(Cl)c2)NC(=O)CN(C)C(=O)[C@@H]1Cc1ccc(C(F)(F)F)cc1 [PP1964] ([NMeL]T(Et)[Sar][Sar][NPrPhe(4-CF3)][Sar][hPhe(3-Cl-4-CF3)]P[Ac4c(3,3-Me2)][NMeGly(cPent)][NMeD]-Morpholide; lactam N-11) |  | 10.3 nM |  | B (a compound having 3 or more and less than 10 is denoted as B) | B (a compound having 3 or more and less than 10 is denoted as B) |  |
| CCO[C@@H]1C[C@H]2C(=O)NC3(CC(F)(F)C3)C(=O)N(C)[C@@H](C3CCCC3)C(=O)N3CCC[C@@H]3CC(=O)N(C)[C@@H](CC)C(=O)N[C@@H]([C@@H](C)CC)C(=O)N(C)CC(=O)N(C)[C@H]3C/C=C\CCN(C3=O)[C@@H](Cc3ccc(C(F)(F)F)cc3)C(=O)N(C)CC(=O)N[C@@H](CCc3cc(F)c(C(F)(F)F)c(F)c3)C(=O)N2C1 [PP1609] |  | 37 nM |  |  |  | HRAS /KRAS ([1]; ratio of KD value for HRAS wild-type protein to KD value for KRAS (SPR)): A (a compound having 10 or more and less than 20 is denoted as A); NRAS /KRAS ([3]; ratio of KD value for GDP-bound NRAS wild-type protein to KD value for KRAS (SPR)): A (a compound having 10 or more and less than 20 is denoted as A) |
| CCO[C@H]1CCN2C(=O)[C@H](CCc3cc(F)c(C(F)(F)F)c(F)c3)NC(=O)CN(C)C(=O)[C@H](Cc3ccc(C(F)(F)F)cc3)N3CCCCC[C@@H](C3=O)N(C)C(=O)CN(C)C(=O)[C@H]([C@@H](C)CC)NC(=O)[C@H](CC(C)C)N(C)C(=O)C[C@@H](C(=O)N3CCOCC3)N(C)C(=O)[C@H](C3CCCC3)N(C)C(=O)C3(CCC3)NC(=O)[C@H]12 [PP1068] | B (a compound having 3 or more and less than 10 is denoted as B) | 121 nM | A (a compound having 10 or more and less than 20 is denoted as A) |  |  |  |
| CCCN1C(=O)[C@@H]2CCN2C(=O)[C@H](C)N(C)C(=O)[C@H]([C@@H](C)CC)NC(=O)[C@H](CC(C)C)N(C)C(=O)C[C@@H](C(=O)N2CCCCC2)N(C)C(=O)[C@H](C2CCCC2)N(C)C(=O)C2(CCCC2)NC(=O)[C@@H]2CCCN2C(=O)[C@H](CCc2ccc(C(F)(F)F)c(Cl)c2)NC(=O)CN(C)C(=O)[C@@H]1Cc1ccc(C(F)(F)F)cc1 [PP0180] ([NMeL]I[NMeA][Aze][NPrPhe(4-CF3)][Sar][hPhe(3-Cl-4-CF3)]P[Ac5c][NMeGly(cPent)][NMeD]-Piperidide; lactam N-11) | C (A compound having a KD ratio of 0.1 or more and less than 3 is denoted as C) | 7.5 nM | C (A compound having a KD ratio of 0.1 or more and less than 3 is denoted as C) |  |  |  |
| CCC[C@H]1C(=O)N[C@@H]([C@@H](C)CC)C(=O)N(C2CC2)CC(=O)N(C)[C@H]2C/C=C\CCN(C2=O)[C@@H](Cc2ccc(C)cc2)C(=O)N(C)CC(=O)N[C@@H](CCc2ccc(C3CC3)c(Cl)c2)C(=O)N2C[C@H](OCC)C[C@H]2C(=O)NC2(CC(C)(C)C2)C(=O)N(C)[C@@H](C2CCCC2)C(=O)N(C)[C@H](C(=O)N(C)C)CC(=O)N1C [PP2885] | A (a compound having 10 or more and less than 20 is denoted as A) | 80.6 nM | A (a compound having 10 or more and less than 20 is denoted as A) |  |  |  |
| CCCN1C(=O)CN(C)C(=O)CNC(=O)[C@H]([C@@H](C)CC)NC(=O)[C@H](CC(C)C)N(C)C(=O)C[C@@H](C(=O)N2CCOCC2)N(C)C(=O)[C@H](C2CCCC2)N(C)C(=O)C2(CCCC2)NC(=O)[C@@H]2CCCN2C(=O)[C@H](CCc2ccc(C(F)(F)F)c(Cl)c2)NC(=O)CN(CC)C(=O)[C@@H]1Cc1ccc(C(F)(F)F)cc1 [PP1969] ([NMeL]IG[Sar][NPrPhe(4-CF3)][NEtG][hPhe(3-Cl-4-CF3)]P[Ac5c][NMeGly(cPent)][NMeD]-Morpholide; lactam N-11) |  | 74 nM |  | C (A compound having a KD ratio of 0.1 or more and less than 3 is denoted as C) | B (a compound having 3 or more and less than 10 is denoted as B) |  |
| CCCN1C(=O)[C@@H]2CCN2C(=O)CN(C)C(=O)[C@H]([C@@H](C)CC)NC(=O)[C@H](CC(C)C)N(C)C(=O)C[C@@H](C(=O)N(C)C)N(C)C(=O)[C@H](C2CCCC2)N(C)C(=O)C2(CCCC2)NC(=O)[C@@H]2CCCN2C(=O)[C@H](CCc2ccc(C(F)(F)F)c(Cl)c2)NC(=O)CN(C)C(=O)[C@@H]1Cc1ccc(C(F)(F)F)cc1 [PP0440] ([NMeL]I[Sar][Aze][NPrPhe(4-CF3)][Sar][hPhe(3-Cl-4-CF3)]P[Ac5c][NMeGly(cPent)][NMeD]-NMe2; lactam N-11) |  | 4.4 nM |  | B (a compound having 3 or more and less than 10 is denoted as B) | C (A compound having a KD ratio of 0.1 or more and less than 3 is denoted as C) |  |
| C#CCN1CC(=O)N(C)[C@H]2C/C=C\CCN(C2=O)[C@@H](Cc2ccc(C(F)(F)F)cc2)C(=O)N(C)CC(=O)N[C@@H](CCc2ccc(C(F)(F)F)c(OC)c2)C(=O)N2C[C@H](OCC)C[C@H]2C(=O)NC2(CC(C)(C)C2)C(=O)N(C)[C@@H](C2CCCC2)C(=O)N(C)[C@H](C(=O)N(C)C)CC(=O)N(C)[C@@H](CCC)C(=O)N[C@@H]([C@@H](C)CC)C1=O [PP2107] |  | 7.8 nM |  | A (a compound having 10 or more and less than 20 is denoted as A) | A (a compound having 10 or more and less than 20 is denoted as A) |  |
| C=CC[C@H]1C(=O)N[C@@H]([C@@H](C)CC)C(=O)N(C)CC(=O)N(C)[C@H]2CCCCCN(C2=O)[C@@H](Cc2ccc(C(F)(F)F)cc2)C(=O)N(C)CC(=O)N[C@@H](CCc2cc(F)c(C(F)(F)F)c(F)c2)C(=O)N2C[C@H](OCC)C[C@H]2C(=O)N[C@](C)(CC=C)C(=O)N(C)[C@@H](C2CCCC2)C(=O)N(C)[C@H](C(=O)N2CCOCC2)CC(=O)N1C [PP0878] | B (a compound having 3 or more and less than 10 is denoted as B) | 85.9 nM | B (a compound having 3 or more and less than 10 is denoted as B) |  |  |  |
| CCC[C@H]1C(=O)N[C@@H](C2CCCC2)C(=O)N(C)CC(=O)N(C)[C@H]2C/C=C\CCN(C2=O)[C@@H](Cc2ccc(C)cc2)C(=O)N(C)CC(=O)N[C@@H](CCc2cc(F)c(C(F)(F)F)c(F)c2)C(=O)N2C[C@H](OCC)C[C@H]2C(=O)NC2(CC(C)(C)C2)C(=O)N(C)[C@@H](CC(C)(C)C)C(=O)N(C)[C@H](C(=O)N(C)C)CC(=O)N1C [PP2989] | A (a compound having 10 or more and less than 20 is denoted as A) | 6.5 nM | AA (a compound having 20 or more is denoted as AA) |  |  |  |
| CCC[C@H]1C(=O)N[C@@H]([C@@H](C)CC)C(=O)N(C)CC(=O)N(C)[C@H]2C/C=C\CCN(C2=O)[C@@H](Cc2ccc(C(F)(F)F)cc2)C(=O)N(C)CC(=O)N[C@@H](CCc2ccc(C(F)(F)F)c(Cl)c2)C(=O)N2CCCC[C@H]2C(=O)NC2(CC(C)(C)C2)C(=O)N(C)[C@@H](C(CC)CC)C(=O)N(C)[C@H](C(=O)N(C)C)CC(=O)N1C [PP2928] | A (a compound having 10 or more and less than 20 is denoted as A) | 168 nM | AA (a compound having 20 or more is denoted as AA) |  |  |  |
| CCO[C@@H]1C[C@H]2C(=O)NC3(CC(C)(C)C3)C(=O)N(C)[C@@H](C(CC)CC)C(=O)N(C)[C@H](C(=O)N(C)C)CC(=O)N(C)[C@@H](C)C(=O)N[C@@H]([C@@H](C)CC)C(=O)N(C)CC(=O)N(C)[C@H]3C/C=C\CCN(C3=O)[C@@H](Cc3ccc(C)cc3)C(=O)N(C)CC(=O)N[C@@H](CCc3ccc(C(F)(F)F)c(Cl)c3)C(=O)N2C1 [PP2150] |  | 58 nM |  | A (a compound having 10 or more and less than 20 is denoted as A) | AA (a compound having 20 or more is denoted as AA) |  |
| CC[C@H](C)[C@@H]1NC(=O)[C@H](C(C)C)N(C)C(=O)C[C@@H](C(=O)N(C)C)N(C)C(=O)[C@H](C2CCCC2)N(C)C(=O)C2(CC(C)(C)C2)NC(=O)[C@@H]2C[C@H](C)CN2C(=O)[C@H](CCc2ccc(C(F)(F)F)c(OC)c2)NC(=O)CN(C)C(=O)[C@H](Cc2ccc(C(F)(F)F)cc2)N2CC/C=C\C[C@@H](C2=O)N(C)C(=O)CN(C)C1=O [PP2005] |  | 10.7 nM |  | A (a compound having 10 or more and less than 20 is denoted as A) | A (a compound having 10 or more and less than 20 is denoted as A) |  |

Source: patent EP4603105A1, “PHARMACEUTICAL COMPOSITION CONTAINING CYCLIC COMPOUND HAVING SELECTIVE KRAS INHIBITORY EFFECT AGAINST HRAS AND NRAS” (CHUGAI SEIYAKU KABUSHIKI KAISHA, priority 2022, dated 2024)
